In ChEMBL document CHEMBL1201862, “PubChem BioAssay data set” (2004):
Calls of active or inactive are those of the source.

Tests used:
Hexokinase HKDC1 = molecular target: T1, Hexokinase HKDC1 (Homo sapiens, UniProt Q2TB90); experiment: inhibition of HKDC1 glucose phosphorylation – biochemical, W721R variant, dose response (AID 504729); type: functional
T1 sequence (Q2TB90 whole entry): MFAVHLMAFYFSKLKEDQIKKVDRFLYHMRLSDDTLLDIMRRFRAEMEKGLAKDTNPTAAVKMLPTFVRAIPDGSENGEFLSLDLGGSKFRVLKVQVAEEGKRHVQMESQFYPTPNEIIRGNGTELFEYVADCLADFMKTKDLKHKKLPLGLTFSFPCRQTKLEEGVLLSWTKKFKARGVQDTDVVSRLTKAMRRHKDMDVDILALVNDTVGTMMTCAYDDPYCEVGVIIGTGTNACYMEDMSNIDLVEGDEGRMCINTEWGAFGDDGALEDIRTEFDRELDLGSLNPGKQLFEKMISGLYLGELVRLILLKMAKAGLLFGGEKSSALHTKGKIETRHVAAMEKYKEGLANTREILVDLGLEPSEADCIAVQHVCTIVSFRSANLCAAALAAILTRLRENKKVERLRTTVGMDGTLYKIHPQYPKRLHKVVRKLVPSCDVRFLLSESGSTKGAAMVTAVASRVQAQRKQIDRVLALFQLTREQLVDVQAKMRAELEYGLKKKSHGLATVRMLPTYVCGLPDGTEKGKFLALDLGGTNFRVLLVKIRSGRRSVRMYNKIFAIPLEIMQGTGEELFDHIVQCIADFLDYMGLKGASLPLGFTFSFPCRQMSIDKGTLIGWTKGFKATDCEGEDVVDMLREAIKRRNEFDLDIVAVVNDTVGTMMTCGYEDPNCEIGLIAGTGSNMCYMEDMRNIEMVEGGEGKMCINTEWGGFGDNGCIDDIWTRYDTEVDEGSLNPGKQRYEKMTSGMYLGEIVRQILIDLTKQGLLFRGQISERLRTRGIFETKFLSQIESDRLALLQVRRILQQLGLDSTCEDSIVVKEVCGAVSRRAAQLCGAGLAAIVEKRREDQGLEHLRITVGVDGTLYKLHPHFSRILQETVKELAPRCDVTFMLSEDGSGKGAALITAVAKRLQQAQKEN

[1] = molecular target: Heat shock protein HSP 90-alpha (Homo sapiens, UniProt P07900); experiment: Luminescence-based dose response biochemical high throughput screening assay for inhibitors of the Heat Shock Protein 90 (HSP90). [Related pubchem assays: 1831 (Summary AID.), 1846 (Confirmation screen.), 1789 (Primary screen.)]
Protein skinhead-1 = molecular target: T2, Protein skinhead-1 (Caenorhabditis elegans, UniProt P34707); type: functional
T2 sequence (P34707 whole entry): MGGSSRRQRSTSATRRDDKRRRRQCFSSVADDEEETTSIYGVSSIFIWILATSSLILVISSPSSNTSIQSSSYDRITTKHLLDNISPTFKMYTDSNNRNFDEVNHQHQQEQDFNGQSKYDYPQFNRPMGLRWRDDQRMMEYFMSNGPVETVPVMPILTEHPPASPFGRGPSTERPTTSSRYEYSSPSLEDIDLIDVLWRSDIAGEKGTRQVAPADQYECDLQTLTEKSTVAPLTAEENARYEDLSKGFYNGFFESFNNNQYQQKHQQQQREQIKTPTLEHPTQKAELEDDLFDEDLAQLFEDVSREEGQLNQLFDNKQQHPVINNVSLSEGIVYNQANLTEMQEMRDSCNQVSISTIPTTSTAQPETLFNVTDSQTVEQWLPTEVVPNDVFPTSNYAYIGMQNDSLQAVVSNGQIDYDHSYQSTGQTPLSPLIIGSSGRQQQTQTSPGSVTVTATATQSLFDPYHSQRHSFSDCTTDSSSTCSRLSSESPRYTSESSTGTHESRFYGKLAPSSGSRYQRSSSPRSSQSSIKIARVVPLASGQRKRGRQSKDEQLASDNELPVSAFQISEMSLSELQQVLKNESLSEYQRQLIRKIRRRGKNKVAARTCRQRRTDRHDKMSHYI

[2] = molecular target: T3, Sentrin-specific protease 6 (Homo sapiens, UniProt Q9GZR1); experiment: SAR Analysis of small molecule inhibitors of Sentrin-specific protease 6 (SENP6) using a Luminescent assay. [Related pubchem assays (depositor defined):AID2582, AID2599]; type: functional
T3 sequence (Q9GZR1 whole entry): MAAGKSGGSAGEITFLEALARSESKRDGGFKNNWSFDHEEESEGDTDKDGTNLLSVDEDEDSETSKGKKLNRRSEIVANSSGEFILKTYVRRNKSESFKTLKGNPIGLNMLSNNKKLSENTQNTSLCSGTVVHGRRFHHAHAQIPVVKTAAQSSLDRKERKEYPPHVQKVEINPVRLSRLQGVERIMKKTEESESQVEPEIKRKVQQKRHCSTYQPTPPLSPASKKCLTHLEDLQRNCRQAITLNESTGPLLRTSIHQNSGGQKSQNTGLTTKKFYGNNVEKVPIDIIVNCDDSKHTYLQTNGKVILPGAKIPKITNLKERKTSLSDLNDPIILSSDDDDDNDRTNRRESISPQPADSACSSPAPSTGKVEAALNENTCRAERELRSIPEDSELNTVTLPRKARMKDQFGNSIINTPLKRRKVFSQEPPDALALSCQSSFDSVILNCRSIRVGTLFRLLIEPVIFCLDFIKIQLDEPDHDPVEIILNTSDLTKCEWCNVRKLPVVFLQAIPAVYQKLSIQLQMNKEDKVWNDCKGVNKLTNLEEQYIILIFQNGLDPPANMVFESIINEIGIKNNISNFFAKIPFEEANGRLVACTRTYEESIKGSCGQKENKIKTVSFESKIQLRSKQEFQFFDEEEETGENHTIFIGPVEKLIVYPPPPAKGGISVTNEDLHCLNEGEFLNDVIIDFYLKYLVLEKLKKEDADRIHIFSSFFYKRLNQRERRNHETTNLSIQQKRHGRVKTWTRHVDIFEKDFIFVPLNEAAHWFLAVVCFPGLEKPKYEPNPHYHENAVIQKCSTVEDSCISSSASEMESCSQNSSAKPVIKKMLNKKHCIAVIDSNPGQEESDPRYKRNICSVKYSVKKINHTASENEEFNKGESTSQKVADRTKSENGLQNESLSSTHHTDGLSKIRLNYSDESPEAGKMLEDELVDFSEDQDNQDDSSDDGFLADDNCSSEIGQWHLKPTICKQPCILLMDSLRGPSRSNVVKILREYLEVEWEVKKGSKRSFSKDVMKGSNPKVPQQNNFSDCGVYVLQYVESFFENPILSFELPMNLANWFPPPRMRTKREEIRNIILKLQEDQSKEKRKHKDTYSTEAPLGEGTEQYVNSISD

[3] = loss of viability in HepG2 cells – cell-based, CellTiter-Glo, cherry-picked, cytotoxicity control for Shn3 inhibitor project, dose response (AID 624134); type: functional

SMILES	IC50 (Hexokinase HKDC1)	IC50 [1]	IC50 (Protein skinhead-1)	IC50 [2]	AC50 [3]
Cc1ccccc1NC1=C/C(=N\S(=O)(=O)c2ccc(C(=O)O)cc2)c2ccccc2C1=O	2.53 µM (active)	0.522 µM (active)			
COc1ccc(-c2cc(-c3ccc(C)cc3)[nH]n2)c(O)c1			> 100 µM (inactive)		
O=C(Nc1ccc(C#Cc2ccccc2)cc1)C1CC1			> 100 µM (inactive)	> 99 µM (inactive)	
COC(=O)C[C@]1(C(=O)OC)CN(C#N)N(c2ccc(Cl)cc2)C12c1ccccc1-c1ccccc12	3.35 µM (active)	3.75 µM (active)			4.76 µM (active)
